# From patent publication US4122034A, “Antimicrobial compositions” (Schering Corporation, priority 1975, dated 1978)
# Key:
# Escherichia coli = test: In vitro antibacterial activity, dilution in Mueller Hinton Agar (Table I); assay type: cell-based
# Procedure: (§1) All the tests were carried out and (when necessary) scored under standard conditions. "MIC" means "minimum inhibitory concentration."
# (§2) In vitro Antibacterial Activity of 2-aminoalkyl-3-phenyl-
# (§3) indoles of the formula I. Dilution in Mueller Hinton Agar pH 7.4
# Proteus mirabilis = test: as above; assay type: cell-based; conditions: Mueller Hinton Agar pH 7.4
# Procedure: as §1, §2, §3
# Streptococcus pyogenes = test: as above; assay type: cell-based
# Procedure: as §1, §2, §3
# Bacteroides corrodens = test: In vitro activity against anaerobes in fluid Thioglycollate medium (Table II); assay type: cell-based; conditions: Eikenella corrodens
# Procedure: as §1
# (§4) In vitro activity of 2-aminoalkyl-3-phenylindoles of the formula I
# (§5) against anaerobes in fluid Thioglycollate medium
# Bacteroides fragilis = test: as above; assay type: cell-based
# Procedure: as §1, §4, §5
# [1] = test system: Bacteroides melaninogenicus; test: as above; assay type: cell-based
# Procedure: as §1, §4, §5
# Clostridium histolyticum = test: as above; assay type: cell-based; conditions: Hathewaya histolytica
# Procedure: as §1, §4, §5
# Clostridium novyi = test: as above; assay type: cell-based
# Procedure: as §1, §4, §5
# Clostridium septicum = test: as above; assay type: cell-based
# Procedure: as §1, §4, §5
# Eubacterium lentum = test: as above; assay type: cell-based; conditions: Eggerthella lenta
# Procedure: as §1, §4, §5
# Peptostreptococcus = test: as above; assay type: cell-based
# Procedure: as §1, §4, §5
# Candida albicans = test: In vitro Anti-Candida activity, dilutions in Sabouraud's Dextrose Agar (Table III); assay type: cell-based; conditions: 48 h
# Procedure: as §1
# In vitro Anti-Candida Activity of 2-aminoalkyl-3-phenyl-
# indoles of the formula I. Dilutions in Sabouraud's Dextrose
# MIC (mcg/ml) after 48 hours
# Aspergillus niger 6275 = test: In vitro antifungal activity, dilutions in Sabouraud's Dextrose Broth (Table IV); assay type: cell-based; conditions: after 96 hours
# Procedure: as §1
# (§6) In vitro Antifungal Activity of 2-amioalkyl-3-phenylindoles
# (§7) of the formula I against Dermetophytes and Aspergillus.
# (§8) Dilutions in Sabouraud's Dextrose Broth.
# Aspergillus sp. No. 3 = test: as above; assay type: cell-based; conditions: after 96 hours
# Procedure: as §1, §6, §7, §8
# Epidermophyton floccosum = test: as above; assay type: cell-based; conditions: after 96 hours
# Procedure: as §1, §6, §7, §8
# Microsporum distortum = test: as above; assay type: cell-based; conditions: after 96 hours
# Procedure: as §1, §6, §7, §8
# Microsporum nanum = test: as above; assay type: cell-based; conditions: Nannizzia nana; after 96 hours
# Procedure: as §1, §6, §7, §8
# Trichophyton ascoides = test: as above; assay type: cell-based; conditions: after 96 hours
# Procedure: as §1, §6, §7, §8
# Trichophyton discoides = test: as above; assay type: cell-based; conditions: after 96 hours
# Procedure: as §1, §6, §7, §8
# Trichophyton ferrugineum = test: as above; assay type: cell-based; conditions: Microsporum ferrugineum; after 96 hours
# Procedure: as §1, §6, §7, §8
# Trichophyton gallinae = test: as above; assay type: cell-based; conditions: after 96 hours
# Procedure: as §1, §6, §7, §8
# Trichophyton megninii = test: as above; assay type: cell-based; conditions: Trichophyton rubrum; after 96 hours
# Procedure: as §1, §6, §7, §8
# [2] = test system: Trichophyton mentagrophytes; test: as above; assay type: cell-based; conditions: 96 h
# Procedure: as §1, §6, §7, §8
# Trichophyton rubrum = test: as above; assay type: cell-based; conditions: 96 h
# Procedure: as §1, §6, §7, §8
# [3] = test system: Trichophyton schoenleinii; test: as above; assay type: cell-based; conditions: 96 h
# Procedure: as §1, §6, §7, §8
# Trichophyton soudenense = test: as above; assay type: cell-based; conditions: after 96 hours
# Procedure: as §1, §6, §7, §8
# Trichophyton tonsurans = test: as above; assay type: cell-based; conditions: after 96 hours
# Procedure: as §1, §6, §7, §8
# Tricoderm sp. = test: as above; assay type: cell-based; conditions: after 96 hours
# Procedure: as §1, §6, §7, §8
# [4] = Acute toxicity in mice (Table V); conditions: mouse, in vivo
# Procedure: as §1
# Acute Toxicity of 2-aminoalkyl-3-phenylindoles of the formula I
# Trychomonas vaginalis = test: In vitro Anti-Trichomonal activity (Table VII); assay type: cell-based
# Procedure: as §1
# In vitro Anti-Trichomonal Activity of some 2-aminoalkyl-3-
# phenyl-indenes of formula II.
compound,measurement,setting,value
"NCc1[nH]c2ccc(Cl)cc2c1-c1c(F)cccc1F [B, 2-aminomethyl-5-chloro-3-(2,6-difluorophenyl)indole]",MIC,"Escherichia coli; pH 7.4, strain 777, Mueller Hinton Agar pH 7.4",7.5 µg/mL
same,MIC,"Escherichia coli; pH 7.4, strain 1574-1, Mueller Hinton Agar pH 7.4",7.5 µg/mL
same,MIC,"Escherichia coli; pH 7.4, strain 4195, Mueller Hinton Agar pH 7.4",7.5 µg/mL
same,MIC,"Escherichia coli; pH 7.4, strain 10536, Mueller Hinton Agar pH 7.4",7.5 µg/mL
same,MIC,"Escherichia coli; pH 7.4, strain JR66, Mueller Hinton Agar pH 7.4",7.5 µg/mL
same,MIC,"Proteus mirabilis; pH 7.4, strain Hard",17.5 µg/mL
same,MIC,"Proteus mirabilis; pH 7.4, strain Peras",37.5 µg/mL
same,MIC,"Streptococcus pyogenes; pH 7.4, strain 27, Mueller Hinton Agar pH 7.4",7.5 µg/mL
same,MIC,"Streptococcus pyogenes; pH 7.4, strain C, Mueller Hinton Agar pH 7.4",17.5 µg/mL
same,MIC,"Streptococcus pyogenes; pH 7.4, strain Cruz, Mueller Hinton Agar pH 7.4",3 µg/mL
same,MIC,Bacteroides corrodens; 48 hrs,7.5 µg/mL
same,MIC,Bacteroides corrodens; 72 hrs,7.5 µg/mL
same,MIC,Bacteroides fragilis; 48 hrs,3 µg/mL
same,MIC,Bacteroides fragilis; 72 hrs,3 µg/mL
same,MIC,[1]; 48 hrs,7.5 µg/mL
same,MIC,[1]; 72 hrs,17.5 µg/mL
same,MIC,Clostridium histolyticum; 48 hrs,7.5 µg/mL
same,MIC,Clostridium histolyticum; 72 hrs,7.5 µg/mL
same,MIC,Clostridium novyi; 48 hrs,7.5 µg/mL
same,MIC,Clostridium novyi; 72 hrs,7.5 µg/mL
same,MIC,Clostridium septicum; 48 hrs,3 µg/mL
same,MIC,Clostridium septicum; 72 hrs,3 µg/mL
same,MIC,Eubacterium lentum; 48 hrs,17.5 µg/mL
same,MIC,Eubacterium lentum; 72 hrs,17.5 µg/mL
same,MIC,Peptostreptococcus; 48 hrs,3 µg/mL
same,MIC,Peptostreptococcus; 72 hrs,3 µg/mL
same,MIC,"Candida albicans; strain 1, after 48 hours",150 µg/mL
same,MIC,"Candida albicans; strain 2, after 48 hours",75 µg/mL
same,MIC,"Candida albicans; strain 3, after 48 hours",150 µg/mL
same,MIC,"Candida albicans; strain 4, after 48 hours",75 µg/mL
same,MIC,"Candida albicans; strain 5, after 48 hours",75 µg/mL
same,MIC,"Candida albicans; strain 6, after 48 hours",150 µg/mL
same,MIC,"Candida albicans; strain 8, after 48 hours",150 µg/mL
same,MIC,"Candida albicans; strain 9, after 48 hours",75 µg/mL
same,MIC,"Candida albicans; strain 29, after 48 hours",75 µg/mL
same,MIC,"Candida albicans; strain Atkisson, after 48 hours",75 µg/mL
same,MIC,"Candida albicans; strain Bertrand, after 48 hours",150 µg/mL
same,MIC,"Candida albicans; strain Bevan, after 48 hours",150 µg/mL
same,MIC,"Candida albicans; strain Blunden, after 48 hours",75 µg/mL
same,MIC,"Candida albicans; strain Bognay, after 48 hours",75 µg/mL
same,MIC,"Candida albicans; strain Boyer, after 48 hours",150 µg/mL
same,MIC,"Candida albicans; strain Burke, after 48 hours",75 µg/mL
same,MIC,"Candida albicans; strain Burnside, after 48 hours",150 µg/mL
same,MIC,"Candida albicans; strain Collins, after 48 hours",75 µg/mL
same,MIC,"Candida albicans; strain Fix, after 48 hours",75 µg/mL
same,MIC,"Candida albicans; strain Frazier, after 48 hours",150 µg/mL
same,MIC,"Candida albicans; strain Fulcher, after 48 hours",75 µg/mL
same,MIC,"Candida albicans; strain Gay, after 48 hours",150 µg/mL
same,MIC,"Candida albicans; strain Hons, after 48 hours",150 µg/mL
same,MIC,"Candida albicans; strain Johnson, after 48 hours",150 µg/mL
same,MIC,"Candida albicans; strain Kenndy 2, after 48 hours",150 µg/mL
same,MIC,"Candida albicans; strain Kennedy 1, after 48 hours",75 µg/mL
same,MIC,"Candida albicans; strain Lehtman, after 48 hours",150 µg/mL
same,MIC,"Candida albicans; strain Lusk, after 48 hours",75 µg/mL
same,MIC,"Candida albicans; strain Merkel, after 48 hours",75 µg/mL
same,MIC,"Candida albicans; strain Newcomb, after 48 hours",37.5 µg/mL
same,MIC,"Candida albicans; strain Sherod, after 48 hours",150 µg/mL
same,MIC,"Candida albicans; strain Shurelli, after 48 hours",150 µg/mL
same,MIC,"Candida albicans; strain Sparks, after 48 hours",150 µg/mL
same,MIC,"Candida albicans; strain Tyner, after 48 hours",150 µg/mL
same,MIC,Aspergillus niger 6275,37.5 µg/mL
same,MIC,Aspergillus sp. No. 3,37.5 µg/mL
same,MIC,Epidermophyton floccosum,17.5 µg/mL
same,MIC,Microsporum distortum,17.5 µg/mL
same,MIC,Microsporum nanum,17.5 µg/mL
same,MIC,Trichophyton ascoides,17.5 µg/mL
same,MIC,Trichophyton discoides,17.5 µg/mL
same,MIC,Trichophyton ferrugineum,37.5 µg/mL
same,MIC,Trichophyton gallinae,7.5 µg/mL
same,MIC,Trichophyton megninii,7.5 µg/mL
same,MIC,"[2]; strain A, after 96 hours",7.5 µg/mL
same,MIC,"[2]; strain B, after 96 hours",7.5 µg/mL
same,MIC,"[2]; strain C, after 96 hours",7.5 µg/mL
same,MIC,"[2]; strain H377, after 96 hours",17.5 µg/mL
same,MIC,"[2]; strain Young, after 96 hours",7.5 µg/mL
same,MIC,"Trichophyton rubrum; strain 3, after 96 hours",17.5 µg/mL
same,MIC,"Trichophyton rubrum; strain 360, after 96 hours",17.5 µg/mL
same,MIC,"Trichophyton rubrum; strain Blehl, after 96 hours",17.5 µg/mL
same,MIC,"Trichophyton rubrum; strain Haggerty, after 96 hours",17.5 µg/mL
same,MIC,"[3]; strain 2, after 96 hours",7.5 µg/mL
same,MIC,"[3]; strain not given, after 96 hours",17.5 µg/mL
same,MIC,Trichophyton soudenense,17.5 µg/mL
same,MIC,Trichophyton tonsurans,200 µg/mL
same,MIC,Tricoderm sp.,7.5 µg/mL
same,LD50,[4]; Oral,~1000 mg/kg
same,LD50,"[4]; ip, I.P.",225 mg/kg
same,LD50,"[4]; sc, S.C.",900 mg/kg
same,IC50,"Trychomonas vaginalis; 50% suppression, read-out: Minimal Level to Produce 50% Suppression",32 µg/mL
same,IC90,"Trychomonas vaginalis; 90% suppression, read-out: Minimal Level to Produce 90% Suppression",75 µg/mL
